Test results: publication PMC12655758, “Identification of KKL-35 as a Novel Carnosine Dipeptidase 2 (CNDP2) Inhibitor by In Silico Screening” (Molecules, 2025)
Like-named read-outs stand apart in the source and are kept apart here. One block for each compound: values may come before it.

Key:
Type in all cases: biochemical
[1] = biological target: T1, Carnosine dipeptidase 2 (CNDP2) (Mus musculus, UniProt Q9D1A2); assay: LC-MS assay of Cys-Gly hydrolysis by purified CNDP2 (Cys-NEM readout; IC50 […] by Gly)
T1 sequence (Q9D1A2 1-475): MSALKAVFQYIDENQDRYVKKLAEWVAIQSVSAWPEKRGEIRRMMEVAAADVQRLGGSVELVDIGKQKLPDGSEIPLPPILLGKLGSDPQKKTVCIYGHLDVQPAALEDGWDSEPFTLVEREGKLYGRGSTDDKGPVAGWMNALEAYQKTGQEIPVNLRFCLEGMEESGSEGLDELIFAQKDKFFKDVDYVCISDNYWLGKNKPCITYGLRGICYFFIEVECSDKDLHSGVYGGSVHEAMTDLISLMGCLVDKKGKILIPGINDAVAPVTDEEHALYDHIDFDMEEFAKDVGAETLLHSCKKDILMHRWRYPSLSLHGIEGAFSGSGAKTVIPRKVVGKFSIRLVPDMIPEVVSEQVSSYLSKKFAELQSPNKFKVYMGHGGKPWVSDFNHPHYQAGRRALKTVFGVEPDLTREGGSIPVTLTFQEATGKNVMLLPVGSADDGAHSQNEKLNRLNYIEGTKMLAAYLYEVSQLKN

[2] = biological target: T1, Carnosine dipeptidase 2 (CNDP2); assay: LC-MS detection of Cys-NEM and Gly products from Cys-Gly ([…]) hydrolysed by purified CNDP2
[3] = biological target: T1, Carnosine dipeptidase 2 (CNDP2); assay: LC-MS assay of Cys-Gly hydrolysis by purified CNDP2 (Cys-NEM readout; IC50 […] by Gly); remark: listed apart in the source

SMILES: CC(C)C[C@H](NC(=O)[C@@H](O)[C@H](N)Cc1ccccc1)C(=O)O [Bestatin]
IC50 [1]: 1 µM

SMILES: N[C@@H](CS)C(=O)NCC(=O)O [Cys-Gly]
LC-MS detection of Cys-NEM and Gly products from Cys-Gly (5 mM) hydrolysed by pu [2]: Cys-Gly was hydrolyzed by CNDP2 to produce cysteine (Cys) and glycine (Gly).

IC50 [3]: 118 µM
SMILES: O=C(Nc1nnc(-c2ccc(F)cc2)o1)c1ccc(Cl)cc1 [KKL-35]
